Experimental data from US20240277790A1, “RECOMBINANT BACULOVIRUSES, ALPHAVIRUS VIRUS-LIKE REPLICON PARTICLES PRODUCED THEREOF AND THEIR USES” (priority 2023, published 2024).

Test system: mos-CHIK-VRPs
Assay: VRP-based antiviral drug assay (luciferase) on Vero cells
Format: cell-based, CHIKV
Details: Chikungunya virus, Vero cells, 2,500 IU VRPs/well, 1 hour + 5 hours at 34° C., read-out: IC50 of inhibition of VRP infection
Method: Luciferase activity in the mos-CHIK-VRPs infected Vero cells was measured using a commercial luciferase assay kit (Promega) in accordance with the manufacturer's instructions. Signals reflecting the luciferase activity was read by a microplate reader (BioTek).
Suramin and 6-azauridine (6-AU) (both from Sigma-Aldrich) were dissolved in water to prepare the stock solutions (suramin, 50 mg/ml, 35 mM; 6-AU, 50 mg/ml, 200 mM) and then stored at −20° C. until use. Vero cells were seeded at a density of 1.5×10^4 cells/well (96 well white/clear bottom plate), and then infected with 2,500 IU VRPs/well in the presence of serially diluted suramin or 6-AU in MEM for 1 hour at 34° C. The suramin- or 6-AU-treated cells were then grown in a 5% FBS medium containing the corresponding concentrations of suramin or 6-AU for another 5 hours at 34° C., then VRP activity was measured by luciferase assay.

**Q.** Which IC50 does the source give for Cc1ccc(C(=O)Nc2ccc(S(=O)(=O)O)c3cc(S(=O)(=O)O)cc(S(=O)(=O)O)c23)cc1NC(=O)c1cccc(NC(=O)Nc2cccc(C(=O)Nc3cc(C(=O)Nc4ccc(S(=O)(=O)O)c5cc(S(=O)(=O)O)cc(S(=O)(=O)O)c45)ccc3C)c2)c1 [suramin] here?
**A.** 81.3 µM

**Q.** For O=c1cnn([C@@H]2O[C@H](CO)[C@@H](O)[C@H]2O)c(=O)[nH]1 [6-AU, 6-azauridine], which IC50 is on record?
**A.** 1.29 µg/mL
